The record followed here is US20230414615A1, “PYRIMIDINONE COMPOUNDS FOR TREATING ACUTE INFLAMMATION” (TES Pharma S.r.l., priority 2022, published 2023).

The subject of one test is rat renal NRK52E cells. Description: OPA-1 expression in rat renal NRK52E cells following Cisplatin insult. The conditions noted are these: via SIRT-3 activation; following Cisplatin insult (100 μM). It is filed as cell-based.
For test [1], the system named is primary hepatocytes. As to the kind of experiment: Gene expression / mRNA levels in primary hepatocytes. It is filed as cell-based, mouse.
In test [2] the test system is co-culture of primary hepatocytes and stellate cells. As to the kind of experiment: Gene expression in co-culture of primary hepatocytes and stellate cells after free fatty acid mix. The format is cell-based. The conditions noted are these: 5 μM; after 6 hr exposure to palmitate (0.33 mM) and oleate (0.66 mM).
Test [3] has as its system Kupffer cells. As to the kind of experiment: NAD+ biosynthesis in Kupffer cells. The format is cell-based.
The subject of test [4] is co-culture of primary hepatocytes and stellate cells. Description: Cytokine secretion in co-culture of primary hepatocytes and stellate cells following LPS-induced inflammation. The format is cell-based. Conditions: LPS 50 ng/mL.
Another test has as its system liver and kidneys. Description: Transcription of mitochondrial genes in liver and kidneys after administration of ACMSD inhibitors. The format is in vivo.
Test [5] deals with kidney proximal tubular HK2 cells. Description: NAD+ biosynthesis in kidney proximal tubular HK2 cells. It is filed as cell-based.
Test [6] concerns co-culture primary hepatocytes and Kupffer cells. Description: IL-6 secretion in co-culture of primary hepatocytes and Kupffer cells following LPS-induced inflammation. Conditions: LPS 50 ng/mL; stated as dose-dependent. It is filed as cell-based.
Test [7] has as its system primary hepatocytes. As to the kind of experiment: NAD+ biosynthesis in primary hepatocytes. It is filed as cell-based.
Test [8] deals with human primary bone marrow mononuclear cells (BMMCs). Description: LPS-induced cytokine secretion in human primary bone marrow mononuclear cells (BMMCs). Conditions: BMMC cells; LPS 50 ng/mL. It is filed as cell-based.
Test [9] has as its system mouse primary hepatocytes. As to the kind of experiment: SOD2 activity in mouse primary hepatocytes. It is filed as cell-based. The conditions noted are these: treatment for 24 hrs; stated as dose-dependent.
For test [10], the system named is primary hepatocytes. As to the kind of experiment: SIRT1 activation in primary hepatocytes. It is filed as cell-based. The conditions noted are these: 500 nM; 24 hrs after treatment.
The test system of test [11] is Kupffer cells. As to the kind of experiment: Cytokine secretion in Kupffer cells following LPS-induced inflammation (Bio-Plex). The conditions noted are these: LPS 50 ng/mL. The format is cell-based, mouse. The text has this:
[…] Cells treated with DMSO were used as control at the final concentration of 0.5% in medium. All the wells were normalized with DMSO at 0.5% final concentration. The supernatant was collected to measure cytokine secretion using a Bio-Plex Pro mouse cytokine 23-plex assay system (cat #M60009RDPD) using a Bio-Plex Instrument. The cells were washed once with PBS, and then lysed to extract total RNA for performing RT-PCR to evaluate ACMSD modulation of IL-10, SIRT1, and STAT3 gene expression.
All cytokine secretion values were normalized to the luminescent signal relative to the measuring of the cellular ATP (CellTiter-Glo cat #G7571)).

As to `N#Cc1c(-c2cccs2)nc(SCc2cccc(-c3nn[nH]n3)c2)[nH]c1=O` [Compound I-17], the “expression of OPA-1” value in the test on rat renal NRK52E cells is reported as “increasing”. In the test on primary hepatocytes [1] (mouse primary hepatocytes after 24 hr treatment), the “mRNA levels of mitochondrial genes TFAM, Ndufa, Uqcrc1, CytC, Atp5g1 and CS” value was “increases”. Also, the “expression of mitochondrial SOD2” value in the test on primary hepatocytes [1] (primary hepatocytes) is reported as “increases”. Also, the “mRNA levels of fatty acid oxidation genes Mcad, Cpt1a, Hadha1, Hsl, Pdk4 and Sdha” value in the test on primary hepatocytes [1] (primary hepatocytes after 6 hr exposure to palmitate (0.33 mM) and oleate (0.66 mM)) was “increases”. Also, the “expression of mitochondrial transcription factor A, TFAM” value with primary hepatocytes [1] (primary hepatocytes, via SIRT-1 activation) is given as “increasing”. For the same compound, the “expression of IL-1β” value in test [2] is given as “reduced”. The “expression of TNFα” value in [2] is reported as “reduced”. Further, the “expression of pro-fibrotic chemokine CTGF” value in test [2] is “reduces”. Further, in [2], the “expression of pro-fibrotic cytokine TGF-β” value was “reduces”. In test [2], the “expression of the pro-fibrotic genes BAX, ACTA2, Col1A1, fibronectin, THBS-1 and TIMP2” value was “reduces”. Also, the “NAD+ biosynthesis” value (in the test on Kupffer cells [3]; in test [5]; in the test on primary hepatocytes [7]) was “restores” throughout. Also, the “secretion of IL-1β” value (in [4] (1 μM); with Kupffer cells [11] (1 μM)) was “reduces” in each case. Moreover, the “secretion of TNFα” value (in [4]; in test [8]; with Kupffer cells [11]) was “reduces” in each case. In addition, the “expression of the same genes (Mcad, Cpt1a, Ndufa2, Atp5g1, Sod2) in the kidneys” value with liver and kidneys (kidneys) is given as “unaffected”. In the test with liver and kidneys (liver), the “transcription of the mitochondrial genes Mcad, Cpt1a, Ndufa2, Atp5g1 and Sod2 in the liver” value is given as “induces”. For the same compound, the “secretion of IL-6” value is “reduced” in test [6] and “reduced” in the test with Kupffer cells [11] (1 μM, incubation time 24 h). For the same compound, the “activity of mitochondrial superoxide dismutase 2, SOD2” value in test [9] was “increases”. Besides, the SIRT1 activation result with primary hepatocytes [10] is on record as “activate”.
